Reference: patent US20260374739A1, “SMALL MOLECULAR WEIGHT CHEMICAL COMPOUND TO ANTAGONIZE EPH-EPHRIN TETRAMERIZATION AND INHIBIT BIDIRECTIONAL SIGNALING” (THE BOARD OF REGENTS OF THE UNIVERSITY OF TEXAS SYSTEM, priority 2022, published 2026)
Values joined by “and” are separate entries in the source; they are usually repeats but may differ in a detail not shown here. Equal entries are not always repeated. Where two headings read alike, the source gives them in different places. Marks after values point to notes of the source that are not given here.

Experiments:
EphrinB2-EphB2 [1] = biological target: T1, EphrinB2-EphB2 (Homo sapiens, UniProt P29323); assay: Octet tetramerization inhibition, immobilized human EphrinB2 binding to 50 nM soluble human EphB2; conditions: for disruption of unsurmountable tetramer: 0.8-3.2 μM
T1 construct: soluble human EphB1-His, EphB2-His, and EphB4-His ectodomains; commercially available human EphrinB1-Fc (EB1), EphrinB2-Fc (EB2), and EphrinB3-Fc (EB3) ectodomain proteins; purchased
T1 sequence (P29323 19-543 limits assumed): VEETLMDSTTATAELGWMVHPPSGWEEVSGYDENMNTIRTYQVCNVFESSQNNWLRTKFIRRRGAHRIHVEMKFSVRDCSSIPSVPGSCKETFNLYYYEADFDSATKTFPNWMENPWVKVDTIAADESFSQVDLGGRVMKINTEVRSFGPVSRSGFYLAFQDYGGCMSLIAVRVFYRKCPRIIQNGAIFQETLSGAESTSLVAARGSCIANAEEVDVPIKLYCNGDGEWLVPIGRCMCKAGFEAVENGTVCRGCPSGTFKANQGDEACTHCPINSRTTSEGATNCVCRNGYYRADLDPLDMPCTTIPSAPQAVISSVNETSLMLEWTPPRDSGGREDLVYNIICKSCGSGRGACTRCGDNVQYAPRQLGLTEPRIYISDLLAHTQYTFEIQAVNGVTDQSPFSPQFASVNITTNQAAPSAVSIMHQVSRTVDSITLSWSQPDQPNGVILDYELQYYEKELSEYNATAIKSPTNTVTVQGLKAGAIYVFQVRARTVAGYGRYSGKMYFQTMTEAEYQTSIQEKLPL

EphrinB2-EphB2 [2] = biological target: T1, EphrinB2-EphB2; assay: Octet 80 sec association/500 sec dissociation, immobilized human EphrinB2-Fc binding to soluble human EphB2-His; conditions: for inhibition at 3.2 µM: EphB2, 25 nM EphB2, 3.2 μM compound, A20-I as max control, 0* = less than 0, no inhibition; for inhibition of EphrinB2-EphB interactions: 3.2 μM, EphB1, EphB2 and EphB4
In short: (§1)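 EphrinB2-Fc captured on AHC biosensors, then soluble His-tagged EphB ectodomain (25 nM for % inhibition runs) associated 80 s and dissociated 500 s in PBS, 0.05% Tween-20, 1% DMSO ± compound. Compounds tested at 0.1–3.2 μM with a 10 μM max standard; IC50 from AUC of full traces or at 75 s and 135 s.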

EphrinB2-EphB1 = biological target: T2, EphrinB2-EphB1 (Homo sapiens, UniProt P54762); assay: Octet 80 sec association/500 sec dissociation, immobilized human EphrinB2-Fc binding to soluble human EphB1-His; conditions: for inhibition at 3.2 µM: EphB1, 25 nM EphB1, 3.2 μM compound, A20-I as max control, 0* = less than 0, no inhibition
T2 construct: soluble human EphB1-His, EphB2-His, and EphB4-His ectodomains; commercially available human EphrinB1-Fc (EB1), EphrinB2-Fc (EB2), and EphrinB3-Fc (EB3) ectodomain proteins; purchased
T2 sequence (P54762 18-540 limits assumed): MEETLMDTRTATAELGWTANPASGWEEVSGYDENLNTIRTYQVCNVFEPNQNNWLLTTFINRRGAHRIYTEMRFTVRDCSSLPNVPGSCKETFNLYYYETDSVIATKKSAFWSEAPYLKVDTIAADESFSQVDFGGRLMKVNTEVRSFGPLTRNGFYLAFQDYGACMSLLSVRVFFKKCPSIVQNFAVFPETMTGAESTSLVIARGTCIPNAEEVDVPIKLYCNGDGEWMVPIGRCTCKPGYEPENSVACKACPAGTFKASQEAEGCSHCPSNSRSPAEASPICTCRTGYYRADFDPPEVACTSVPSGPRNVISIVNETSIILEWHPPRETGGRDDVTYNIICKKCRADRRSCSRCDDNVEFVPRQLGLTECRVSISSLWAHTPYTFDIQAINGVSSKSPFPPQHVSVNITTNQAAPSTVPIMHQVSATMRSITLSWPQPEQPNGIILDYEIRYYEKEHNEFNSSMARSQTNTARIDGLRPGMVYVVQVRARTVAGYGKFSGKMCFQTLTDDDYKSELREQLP
In short: as §1

[3] = Absolute AUC/IC50, Table A, EphrinB2-EphB2
[4] = Absolute Association IC50 (300 sec), Table A, EphrinB2-EphB2
[5] = Relative AUC/IC50, Table A, EphrinB2-EphB2, compound 7: association only
[6] = Relative Association IC50 (300 sec), Table A, EphrinB2-EphB2
[7] = Relative Dissociation IC50 (450 sec), Table A, EphrinB2-EphB2
[8] = read-out: % Inhibition: Association + Dissociation (160 sec)
[9] = read-out: % Inhibition: Association ONLY (80 sec)
[10] = Absolute Dissociation IC50 (450 sec), Table A, EphrinB2-EphB2

Oc1ccc(CN2CCN(c3ccc(Br)cn3)CC2)c2cccnc12 [Compound 33, 5-((4-(5-bromopyridin-2-yl)piperazin-1-yl)methyl)quinolin-8-ol]
IC50 (EphrinB2-EphB2 [1]; [3]): 2510 nM | IC50 (EphrinB2-EphB2 [1]; [4]): > 3200 nM | IC50 (EphrinB2-EphB2 [1]; [5]): 2190 nM | IC50 (EphrinB2-EphB2 [1]; [6]): 1820 nM | IC50 (EphrinB2-EphB2 [1]; [7]): 2240 nM | inhibition at 3.2 µM (EphrinB2-EphB2 [2]; [8]): 81.6% | inhibition at 3.2 µM (EphrinB2-EphB2 [2]; [9]): 69.4% | inhibition at 3.2 µM (EphrinB2-EphB1; [8]): 58.6% | inhibition at 3.2 µM (EphrinB2-EphB1; [9]): 46.4%

COc1ccccc1N1CCN(Cc2cc(I)c(O)c3ncccc23)CC1 [Compound 71, 7-iodo-5-((4-(2-methoxyphenyl)piperazin-1-yl)methyl)quinolin-8-ol]
tetramerization inhibitor activity (EphrinB2-EphB2 [1]): exhibit strong IC50 values | disruption of unsurmountable tetramer (EphrinB2-EphB2 [1]; listed as 3511-1): fairly strong ability to disrupt some of the unsurmountable tetramer | disruption of unsurmountable tetramer (EphrinB2-EphB2 [1]; listed as 3511-I): able to inhibit a small amount of the EphrinB2-EphB2 unsurmountable tetramer | IC50 (EphrinB2-EphB2 [1]; [3]): 420 nM and 530 nM | IC50 (EphrinB2-EphB2 [1]; [4]): 680 nM | IC50 (EphrinB2-EphB2 [1]; [10]): 620 nM and 650 nM | IC50 (EphrinB2-EphB2 [1]; [5]): 380 nM and 410 nM | IC50 (EphrinB2-EphB2 [1]; [6]): 470 nM and 340 nM | IC50 (EphrinB2-EphB2 [1]; [7]): 480 nM and 510 nM | inhibition of EphrinB2-EphB interactions (EphrinB2-EphB2 [2]): activity similar to A20-I max control | inhibition at 3.2 µM (EphrinB2-EphB2 [2]; [8]): 73.2% | inhibition at 3.2 µM (EphrinB2-EphB2 [2]; [9]): 58.7% | inhibition at 3.2 µM (EphrinB2-EphB1; [8]): 52.3% | inhibition at 3.2 µM (EphrinB2-EphB1; [9]): 39.6%

COc1ccc2[nH]cc(C(=O)N3CCOCC3)c2c1 [Compound 63, (5-methoxy-1H-indol-3-yl)(morpholino)methanone]
IC50 (EphrinB2-EphB2 [1]; [3]): > 3200 nM | IC50 (EphrinB2-EphB2 [1]; [4]): > 3200 nM | IC50 (EphrinB2-EphB2 [1]; [10]): > 3200 nM | IC50 (EphrinB2-EphB2 [1]; [5]): > 3200 nM | IC50 (EphrinB2-EphB2 [1]; [6]): > 3200 nM | IC50 (EphrinB2-EphB2 [1]; [7]): > 3200 nM | inhibition of EphrinB2-EphB interactions (EphrinB2-EphB2 [2]): showed no activity across the board | inhibition at 3.2 µM (EphrinB2-EphB2 [2]; [8]): 1.3% | inhibition at 3.2 µM (EphrinB2-EphB2 [2]; [9]): 4.3% | EphB2 Inhibition Percent, Inhibition of Association-Dissociation (EphrinB2-EphB2 [2]; at 3.2 μM and 580 seconds, immobilized human EphrinB2, 25 nM soluble human EphB2): 0*% | inhibition at 3.2 µM (EphrinB2-EphB1; [8]): 0% | inhibition at 3.2 µM (EphrinB2-EphB1; [9]): 1.19% | EphB1 Inhibition Percent, Inhibition of Association ONLY (EphrinB2-EphB1; at 3.2 μM and 80 seconds, immobilized human EphrinB2, 25 nM soluble human EphB1): 1.2%

O=C(Cc1ccccc1)Nc1ccc(N2CCN(Cc3ccc(O)c4ncccc34)CC2)cc1 [Compound 51, N-(4-(4-((8-hydroxyquinolin-5-yl)methyl)piperazin-1-yl)phenyl)-2-phenylacetamide]
disruption of unsurmountable tetramer (EphrinB2-EphB2 [1]): able to inhibit a small amount of the EphrinB2-EphB2 unsurmountable tetramer | IC50 (EphrinB2-EphB2 [1]; [3]): 1510 nM | IC50 (EphrinB2-EphB2 [1]; [4]): 1450 nM | IC50 (EphrinB2-EphB2 [1]; [10]): 1290 nM | IC50 (EphrinB2-EphB2 [1]; [5]): 1020 nM | IC50 (EphrinB2-EphB2 [1]; [6]): 980 nM | IC50 (EphrinB2-EphB2 [1]; [7]): 930 nM | IC50 (EphrinB2-EphB2 [1]; tetramerization inhibitor IC50 (relative), association step, surmountable tetramer): ~1200 nM | inhibition at 3.2 µM (EphrinB2-EphB2 [2]; [8]): 78.8% | inhibition at 3.2 µM (EphrinB2-EphB2 [2]; [9]): 64.8% | inhibition at 3.2 µM (EphrinB2-EphB1; [8]): 61.2% | inhibition at 3.2 µM (EphrinB2-EphB1; [9]): 52.7%
